According to US20250002865A1, “METHOD FOR PRODUCING ORGANISM, AND METHOD FOR PROMOTING DIFFERENTIATION OF HUMAN ADIPOSE-DERIVED STEM CELLS INTO VASCULAR ENDOTHELIAL CELLS” (TOPPAN Holdings Inc., priority 2021, published 2025):
“And” between values parts separate entries of the source, which are not always exact repeats. Identical values can stand only once.

Tests used:
[1] = test system: cell balls of mature adipocytes and cells recovered from ADSC tissue construct
Method: Isolated ADSC was suspended in an EGM-2 medium, seeded in a 10-cm dish, and incubated at 37° C. The culture medium was changed every 2 days, and culture was carried out for 7 days to obtain a tissue construct. From this tissue construct, cells including ADSC, ADSC-derived vascular endothelial cells, and vascular endothelial progenitor cells were recovered.
The total number of cells of the tissue construct (cell ball) used was 4.0×10^4 cells/ball, and the mature adipocytes and the above-described recovered cells were used a ratio of 3:2.5 for the production.
The cell ball seeded in the low-adhesion 96-well plate was incubated in a 37° C. incubator for 15 minutes to carry out gelation, and 300 μL of EGM-2 or KBM was added thereto. […] In addition, EGM-2 or KBM, containing only insulin of a final concentration of 10 μg/mL and an ALK-5 inhibitor of 5 μM, was used as a control.
(§1) After 24 hours of culture, cells were transferred to a low-adhesion 24-well plate (IWAKI #4820-800LP), and 2 mL of the above EGM-2 or KBM was added thereto. The culture medium was changed every 2 to 3 days until the 7th day of culture.
The fluorescence imaging of the tissue construct was carried out as in Production Example 4, except that an anti-von Willebrand factor (vWF) antibody diluted 100-fold in a 1% BSA/PBS solution was used as a primary antibody solution and an Alexa Fluor 647-labeled anti-rabbit IgG antibody solution diluted 200-fold in 1% BSA/PBS solution was used as a secondary antibody solution. The vWF was used as a marker for vascular endothelial cells. In addition, for observation, the cell ball was placed directly on a complete plate of a Confocal Quantitative Image Cytometer CQ1 (Yokogawa Electric Corporation), and the stained tissue construct was observed using the Confocal Quantitative Image Cytometer CQ1 with laser excitation light at 640 nm.

[2] = test system: cell balls of mature adipocytes and cells recovered from ADSC tissue construct; details: VEGF 50 ng/mL in EGM-2 with 10 μg/mL insulin and 5 μM ALK-5 inhibitor, 7 days
Method: Regarding the produced tissue construct, 5 μL (equivalent to one cell ball) of the mixture (equivalent to 40 cell balls) was seeded on each well of a low-adhesion 96-well plate (IWAKI #4860-800LP).
The cell ball seeded in the low-adhesion 96-well plate was incubated in a 37° C. incubator for 15 minutes to carry out gelation, and 300 μL of EGM-2 containing insulin of a final concentration of 10 μg/mL, an AKL-5 inhibitor of 5 μM, and VEGF of 50 ng/mL was added thereto.
as §1
The fluorescence imaging of the tissue construct was carried out as in Production Example 4, except that various primary antibody solutions and the corresponding secondary antibody solutions were used. […]
For observation, the cell ball was placed directly on a complete plate of a Confocal Quantitative Image Cytometer CQ1 (Yokogawa Electric Corporation), and the stained tissue construct was observed using the Confocal Quantitative Image Cytometer CQ1. […]

[3] = test system: human adipose stem cell (ADSC); details: 5 μM in EGM-2, 7 days, compared with EGM-2 without ALK5 inhibitor
Method: The culture medium was changed every 2 days, and culture was carried out for 7 days after seeding to obtain a tissue construct.
Fluorescence imaging of the tissue construct was carried out according to the following procedure. A transwell containing the obtained tissue construct was transferred to a 24-well plate. After washing with 2 mL of PBS, the tissue was fixed overnight under the condition of 4° C. using 2 mL of 4% PFA. Washing was carried out three times using 2 mL of PBS. Cells were subjected to permeabilization treatment for 7 minutes under room temperature conditions by using 0.05% Triton/PBS (500 μL in the transwell and 500 μL outside the transwell), and washing was carried out three times using 2 mL of PBS.
The tissue was subjected to blocking treatment for 1 hour under room temperature conditions by using a 1% BSA/PBS solution (500 μL in the transwell and 500 μL outside the transwell). The BSA solution was aspirated, and 100 μL of a primary antibody solution (an anti-CD31 antibody diluted 100-fold in a 1% BSA/PBS solution) was added (50 μL in the transwell and 50 μL outside the transwell). A wet tissue paper was placed under the plate, and the plate was covered with an aluminum foil and incubated overnight under the condition of 4° C. […]

[4] = test system: human adipose stem cell (ADSC); details: 5 μM in EGM-2 for 7 days, then 24 hours on Matrigel; compared with EGM-2 without ALK5 inhibitor
Method: The culture medium was changed every 2 days, culture was carried out for 7 days. Thereafter, the ADSC was separated from the dish using trypsin/EDTA and suspended in 1 mL of DMEM, and the number of cells was counted. Further, the recovered ADSC was seeded on a 24-well plate previously coated with Matrigel at concentrations of 1.0×10^5 cells/dish, 1.5×10^5 cells/dish, and 2.0×10^5 cells/dish, and incubated at 37° C. for 24 hours. Thereafter, the morphology of the tissue construct was evaluated with a phase contrast microscope.

[5] = test system: human adipose stem cell (ADSC); details: 5 μM in EGM-2, 7 days
Method: The culture medium was changed every 2 days, and culture was carried out for 7 days to obtain a tissue construct. Thereafter, the ADSC was gently detached while leaving cell surface proteins, by incubation for 5 minutes using 0.25% Trypsin, recovered from the dish, and suspended in 1 mL of DMEM, and the number of cells was counted.
The ratio of vascular endothelial cells in the tissue construct was analyzed by the flow cytometry analysis using BD Facsmelody (registered trademark) cell sorter (Becton, Dickinson and Company). The tissue construct recovered as described above was centrifuged (100 g, 5 minutes, 4° C.). […] Thereafter, cells were centrifuged (100 g, 5 minutes, 4° C.) to wash the cells, and the pelleted cells were suspended in a buffer, and 10,000 events were recorded. Further, an isotype control for the conjugated antibody was measured simultaneously. […]
The ratio of vascular endothelial cells in the sample was analyzed by the flow cytometry analysis using BD Facsmelody (registered trademark) cell sorter (Becton, Dickinson and Company). […] Thereafter, cells were centrifuged (100 g, 5 minutes, 4° C.) to wash the cells, and the pelleted cells were suspended in a buffer, and 10,000 events were recorded. Further, an isotype control for the conjugated antibody was measured simultaneously. […]

| Molecule | vascular network, number of branches of blood vessels, vs control without VEGF ([1]; VEGF 0.5, 20, 50 or 100 ng/mL in EGM-2 or KBM with 10 μg/mL insulin and 5 μM ALK-5 inhibitor, 7 days) | vascular network, number of branches of blood vessels, vs culture medium containing leptin ([1]; VEGF-containing medium vs leptin 1 μg/mL, both with insulin and 5 μM ALK-5 inhibitor, 7 days) | vascular network, amount of blood vessels among VEGF concentrations ([1]; culture medium containing more than 20 ng/mL of VEGF) | proportion of vWF-positive vs CD34-positive cells among total CD31-positive cells [2] | vascular network formation in cell ball [2] | vascular network formation by CD31 staining [3] | lumen formation / vascular network on Matrigel [4] | ratio of vascular endothelial cells (CD31+) based on number of total cells recovered [5] |
| --- | --- | --- | --- | --- | --- | --- | --- | --- |
| VEGF | the number of branches of blood vessels is large as compared with the control cell ball | the number of branches of blood vessels is large as compared with the cell ball cultured in a culture medium containing leptin | a vascular network having still more blood vessels was formed | the proportion of vWF-positive cells with respect to the total CD31-positive cells was higher than the proportion of CD34-positive cells | a vascular network was also formed | – | – | – |
| Cc1cccc(-c2n[nH]cc2-c2ccc3ncccc3n2)n1 [ALK5 inhibitor, 2-[3-(6-methyl-2-pyridinyl)-1H-pyrazol-4-yl]-1,5-naphthyridine] | – | – | – | – | – | a vascular network in which the number of branches is larger is formed | lumen formation is further progressed | 29.29% and 32.4% |
